Calls of active or inactive are those of the source. No rule for the calls is given here.
Molecular target: Chaperone protein DnaK (Escherichia coli (strain K12)) (UniProt P0A6Y8)
Test: binders of DnaK substrate-binding domain, biophysical, NMR, chaperone (AID 1033)
Details: Purified DnaK SBD, NMR ligand binding

Sequence of Chaperone protein DnaK (Escherichia coli (strain K12)) (P0A6Y8 whole entry, looked up, the tested form may be a part): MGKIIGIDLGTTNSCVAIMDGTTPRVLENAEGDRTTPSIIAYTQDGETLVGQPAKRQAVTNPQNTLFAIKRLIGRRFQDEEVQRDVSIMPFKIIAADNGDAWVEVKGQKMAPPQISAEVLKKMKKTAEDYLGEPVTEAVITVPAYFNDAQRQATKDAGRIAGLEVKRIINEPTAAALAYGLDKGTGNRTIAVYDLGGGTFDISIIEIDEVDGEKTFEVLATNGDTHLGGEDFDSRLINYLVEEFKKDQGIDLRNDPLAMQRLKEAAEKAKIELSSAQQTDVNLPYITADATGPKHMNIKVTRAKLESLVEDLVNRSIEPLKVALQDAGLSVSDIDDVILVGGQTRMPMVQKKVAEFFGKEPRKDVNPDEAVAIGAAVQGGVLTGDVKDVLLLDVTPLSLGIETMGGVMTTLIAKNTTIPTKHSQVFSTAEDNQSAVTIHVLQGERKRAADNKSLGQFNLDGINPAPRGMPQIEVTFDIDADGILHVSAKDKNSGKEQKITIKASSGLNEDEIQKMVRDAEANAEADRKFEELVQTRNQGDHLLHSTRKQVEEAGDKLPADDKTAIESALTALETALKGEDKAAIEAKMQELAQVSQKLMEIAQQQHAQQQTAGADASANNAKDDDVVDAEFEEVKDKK

| SMILES | Kd |
| --- | --- |
| C=C1C(N)CC2CC1C2(C)C (stereo not drawn) | > 4 mM (inactive) |
| NC1C2CC3CC1CC(O)(C3)C2 (stereo not drawn) | > 4 mM (inactive) |
| Oc1ccccc1C(=S)N1CCCCCC1 | > 4 mM (inactive) |
| c1ccc(-c2noc(-c3ccco3)n2)nc1 | > 4 mM (inactive) |
| CC1(C)CC2(C)N(N)C(=O)CN2C(=S)N1 (stereo not drawn) | > 4 mM (inactive) |
| CC(=O)NC(=S)Nc1cccc(C(=O)O)c1C | > 4 mM (inactive) |
| Nc1nc(CSc2ncn(-c3ccccc3)n2)cs1 | > 4 mM (inactive) |
| CC1(C)CC[C@]2(C(=O)O)CC[C@]3(C)C(=CCC4[C@@]5(C)CC[C@H](O)[C@@](C)(CO)C5CC[C@]43C)C2C1 (stereo partly drawn) | > 4 mM (inactive) |
| CC1(C)C(=O)C=C[C@@]2(C)C1=C(O)C(=O)[C@]1(C)C2CC[C@@]2(C)[C@H](c3ccoc3)C[C@H]3O[C@]321 (stereo partly drawn) | > 4 mM (inactive) |
| CN1CCN(CC(=O)N2CCc3ccccc32)CC1 | > 4 mM (inactive) |
| COC(=O)c1c(OC)cc2c(c1C)Oc1c(Cl)c(OC(C)=O)c(Cl)c(C)c1C(=O)O2 | > 4 mM (inactive) |
| O=C1CCCC2C3CC(CN12)[C@@H]1CCCCN1C3 (stereo partly drawn) | > 4 mM (inactive) |
| Nc1nc2n(c1C(=O)c1ccccc1)CCC2 | > 4 mM (inactive) |
| Cc1cc2cc3c(C)cc(=O)oc3c(C)c2o1 | > 4 mM (inactive) |
| CC(=O)N1CCc2cc(NC(=O)c3ccc(C)cc3)ccc21 | > 4 mM (inactive) |
| CCOC(=O)c1ccc(F)c(F)c1 | > 4 mM (inactive) |
| O=C(O)CNC(=O)c1ccccc1 | > 4 mM (inactive) |
| O=Cc1c(N2CCOCC2)nc2ccccn2c1=O | > 4 mM (inactive) |
| NCc1cc2ccccc2s1 | > 4 mM (inactive) |
| COc1ccc2nc(N)sc2c1 | > 4 mM (inactive) |
| Cc1nn(-c2ccccc2C(=O)O)c(=O)c2ccccc12 | > 4 mM (inactive) |
| O=C(CSc1ccc(Cl)cc1)N1CCOCC1 | > 4 mM (inactive) |
| NC1CSCC1O (stereo not drawn) | > 4 mM (inactive) |
| CCC1(CC)C(=O)NC(=O)N=C1N | > 4 mM (inactive) |

| SMILES | Kd |
| --- | --- |
| CN1C2C[C@H](OC(=O)[C@H](CO)c3ccccc3)C[C@H]1[C@@H](O)C2 | > 4 mM (inactive) |
| Nc1nc(SCc2ccccc2)ns1 | > 4 mM (inactive) |
| CCOC(=O)c1cnc2n(c1=O)CCS2 | > 4 mM (inactive) |
| CC1(C)Cn2c(nnc2-c2ccccc2)S1 | > 4 mM (inactive) |
| Cc1csc2nc(N)nn12 | > 4 mM (inactive) |
| COc1ccc2c(c1)[n+](=O)c(C(C)=O)c(C)n2[O-] | > 4 mM (inactive) |
| COc1c2ccoc2cc2oc(C)cc(=O)c12 | > 4 mM (inactive) |
| Cc1nnsc1C(=O)O | > 4 mM (inactive) |
| C(=Nn1cnnc1)c1ccccc1 | > 4 mM (inactive) |
| Cc1ccc(-c2cc(C(=O)N3CCCC3)no2)cc1 | > 4 mM (inactive) |
| C#CCCCCCCCCCCCC(O)CC(O)COC(C)=O (stereo not drawn) | > 4 mM (inactive) |
| Cn1c([O-])c([N+](C)(C)C)c(=O)n(C)c1=O | > 4 mM (inactive) |
| O=C(Nn1cnnc1)c1csc2ccccc12 | > 4 mM (inactive) |
| CSc1ccc(/C=N/n2c(C)nnc2C)cc1 | > 4 mM (inactive) |
| Nc1cccc2c(=O)[nH][nH]c(=O)c12 | > 4 mM (inactive) |
| O=C1CCN(c2ccccc2)N1 | > 4 mM (inactive) |
| Nc1nc2ccccc2n1CCN1CCCC1 | > 4 mM (inactive) |
| O=C(O)c1csc(-c2ccccc2)n1 | > 4 mM (inactive) |
| C=C[C@H]1CN2CC[C@H]1C[C@@H]2[C@@H](O)c1ccnc2ccc(OC)cc12 | > 4 mM (inactive) |
| COC(=O)c1ccc(N2CCCC2)nc1 | > 4 mM (inactive) |
| Cc1ccc(C)n1/N=C1\NC(=O)CS1 | > 4 mM (inactive) |
| CC(=O)NCc1nc2ccccc2[nH]1 | > 4 mM (inactive) |
| CCOC(=O)CC1Sc2ccccc2NC1=O (stereo not drawn) | > 4 mM (inactive) |
| O=C(O)C1CC2CC1CCC2O (stereo not drawn) | > 4 mM (inactive) |

| SMILES | Kd |
| --- | --- |
| O=c1nc(N2CCCCC2)nc2n1CCO2 | > 4 mM (inactive) |
| O=C(c1ccccc1)N1CCNCC1 | > 4 mM (inactive) |
| Cc1cc(C)n(C/C=C/Cn2nc(C)cc2C)n1 | > 4 mM (inactive) |
| C/C(O)=c1/sc2cc(C)nc(=N)n2c1=O | > 4 mM (inactive) |
| CN1CCC(=NNC(=O)c2ccco2)CC1 | > 4 mM (inactive) |
| Nc1ccc2c(c1)N1CCN=C1S2 | > 4 mM (inactive) |
| Cc1n[nH]c(=S)n1-c1ccc(C(=O)O)cc1 | > 4 mM (inactive) |
| c1ccc(Cc2nnc3sc(-c4ccncc4)nn23)cc1 | > 4 mM (inactive) |
| CC(O)c1ccc(C(C)O)cc1 (stereo not drawn) | > 4 mM (inactive) |
| COc1ccc2cc3[n+](cc2c1OC)CCc1cc2c(cc1-3)OCO2 | > 4 mM (inactive) |
| Cc1nc2ccc(C(=O)O)cc2nc1C | > 4 mM (inactive) |
| NC1=C(c2ccccc2)C(=O)c2ccccc21 | > 4 mM (inactive) |
| O=c1oc2ccccc2cc1O | > 4 mM (inactive) |
| CCC1(CC)C(=O)N=C(N)NC1=O | > 4 mM (inactive) |
| NC(=O)c1ccsc1NC(=O)c1ccccc1[N+](=O)[O-] | > 4 mM (inactive) |
| COc1ccc2c(c1)OC/C(=C\c1ccc(OC)c(O)c1)C2=O | > 4 mM (inactive) |
| CC(C)c1c(O)ccc2c1CCC1[C@@](C)(CO)CCC[C@]21C (stereo partly drawn) | > 4 mM (inactive) |
| COc1c(O)cc2c(-c3ccccc3)cc(=O)oc2c1OC | > 4 mM (inactive) |
| NC1=NC(=O)/C(=C\c2cccnc2)S1 | > 4 mM (inactive) |
| O=c1c(O)cccc2cc(O)c(O)c(O)c12 | > 4 mM (inactive) |
| O=C1Cc2ccccc2N1c1ccccc1 | > 4 mM (inactive) |
| CC(=O)Nc1ccc(C(=O)N2CCOCC2)cc1Cl | > 4 mM (inactive) |
| NCCCCN | > 4 mM (inactive) |
| COc1ccccc1/C=C/CN1CCOCC1 | > 4 mM (inactive) |

| SMILES | Kd |
| --- | --- |
| NC(=O)CSc1nc2ccccc2[nH]1 | > 4 mM (inactive) |
| Oc1cc(O)c2c(c1)O[C@H](c1ccc(O)c(O)c1)[C@@H](O)C2 | > 4 mM (inactive) |
| Cc1c(C)c2c(c(C)c1O)CCC(C)(CCCC(C)CCCC(C)CCCC(C)C)O2 (stereo not drawn) | > 4 mM (inactive) |
| CN1CCC(NC(=O)Cc2c(F)cccc2Cl)CC1 | > 4 mM (inactive) |
| COc1ccc(-c2cc(=O)c3c(OC)c(OC)c(OC)c(OC)c3o2)cc1OC | > 4 mM (inactive) |
| CC(=O)OC1CCC23C(=O)OC45CCC(C6=CC(=O)OC6)C4(C)CCC2C5CCC3(O)C1 (stereo not drawn) | > 4 mM (inactive) |
| COc1ccccc1NC(=O)NC(N)=O | > 4 mM (inactive) |
| CC(=O)c1cccc(NC(=O)NN2CCOCC2)c1 | > 4 mM (inactive) |
| Nc1[nH]c(=S)[nH]c(=O)c1-c1ccccc1 | > 4 mM (inactive) |
| COc1ccc(C)cc1-n1c(-c2ccncc2)n[nH]c1=S | > 4 mM (inactive) |
| Cc1cc(C(=O)NN2CCOCC2)c(C)o1 | > 4 mM (inactive) |
| O=C(CSc1ccnc(=O)[nH]1)NCc1ccco1 | > 4 mM (inactive) |
| C=C1C([C@]2(C)C(CC(=O)OC)[C@@](C)(COC(C)=O)OC(=O)C[C@@H]2OC(C)=O)[C@@H](OC=O)[C@H](OC(=O)C(O)C(C)CC)[C@@]2(C)[C@H](c3ccoc3)CC(=O)C12O (stereo partly drawn) | > 4 mM (inactive) |
| O=c1[nH]cnc2nn(-c3ccccc3)nc12 | > 4 mM (inactive) |
| Nc1ccc(N2CCCCC2)cc1 | > 4 mM (inactive) |
| COc1cc2c(cc1-c1coc3c4c(c(OC)cc3c1=O)OC(C)(C)C=C4)OCO2 | > 4 mM (inactive) |
| COCCn1c(C)cc(O)cc1=O | > 4 mM (inactive) |
| Cc1cc(C)n(CC(=O)NC2CCCCC2)n1 | > 4 mM (inactive) |
| OCc1ccc2nsnc2c1 | > 4 mM (inactive) |
| COc1ccc(C2(C)NC(=O)NC2=O)cc1 (stereo not drawn) | > 4 mM (inactive) |
| CC(C)=CCCC1(C)C=Cc2c(O)c3c(c(CC=C(C)C)c2O1)OC12C(=CCCC1C(C)(C)O[C@@]2(C/C=C(\C)C(=O)O)C(=O)O)C3=O (stereo partly drawn) | > 4 mM (inactive) |
| C=Cc1c(C)c2cc3[nH]c(cc4nc(cc5nc(cc1[nH]2)C(C)=C5CCC(=O)O)C(CCC(=O)O)=C4C)c(C)c3C=C | > 4 mM (inactive) |
| CCOc1ccccc1C(=O)NC1=NCCS1 | > 4 mM (inactive) |
| COc1ccc(C(=O)O)cc1OC | > 4 mM (inactive) |

| SMILES | Kd |
| --- | --- |
| Nc1cccnc1N1CCOCC1 | > 4 mM (inactive) |
| Cc1onc(-c2c(F)cccc2Cl)c1C(N)=O | > 4 mM (inactive) |
| Clc1ccccc1OCc1nc(-c2ccncc2)no1 | > 4 mM (inactive) |
| CCP(=O)(CC)c1cccc(C)c1 | > 4 mM (inactive) |
| CCOc1ccc(N2C(=O)CCC2=O)cc1 | > 4 mM (inactive) |
| Nc1nc2ccc(N3CCOCC3)cc2s1 | > 4 mM (inactive) |
| CCOC(=O)c1c[nH]c2c(F)cccc2c1=O | > 4 mM (inactive) |
| NC1=NC(=O)/C(=C/c2ccccc2[N+](=O)[O-])S1 | > 4 mM (inactive) |
| O=C(c1ccncc1)c1ccc(Br)cc1 | > 4 mM (inactive) |
| COc1cccc2c1CCC1=CC(=O)CC[C@@]12C | > 4 mM (inactive) |
| O=C(O)c1cc(O)c2c(c1)[C@@H]([C@H]1c3cc(C(=O)O)cc(O)c3C(=O)c3c(O[C@H]4O[C@H](CO)[C@@H](O)[C@H](O)[C@H]4O)cccc31)c1cccc(O[C@H]3O[C@H](CO)[C@@H](O)[C@H](O)[C@H]3O)c1C2=O | > 4 mM (inactive) |
| O=C1CCCN1c1ccc(S(=O)O)cc1 | > 4 mM (inactive) |
| CCN1CCC(=NO)CC1 | > 4 mM (inactive) |
| C/C1=C/CC(C)(C)/C=C/C/C(C)=C/CC1 | > 4 mM (inactive) |
| c1cc(CNc2ccc3c(c2)OCCO3)ccn1 | > 4 mM (inactive) |
| CC(=O)Nc1ccc(S(=O)(=O)N(C)C)cc1 | > 4 mM (inactive) |
| O=C(O)C1CN(Cc2ccccc2)CCO1 (stereo not drawn) | > 4 mM (inactive) |
| CC(=O)Nc1ccc(C(=O)n2nc(C)cc2C)cc1 | > 4 mM (inactive) |
| NC(=O)Cc1nc(-c2ccccc2)cs1 | > 4 mM (inactive) |
| O=C(O)/C=C/C(=O)Nc1ccccc1C(F)(F)F | > 4 mM (inactive) |
| O=C(O)c1ccc(Oc2ccccc2)nc1 | > 4 mM (inactive) |
| Cc1ccc(S(=O)(=O)/N=C2\NC(=O)CS2)cc1 | > 4 mM (inactive) |
